How the values were obtained:
[1] = Kinetic thiol consumption assay with model thiol glutathione; assay type: physicochemical; parameters: Rate constant with glutathione (k(GSH)): unit not given here; settings: for Rate constant with glutathione (k(GSH)): 500 μM ligand, 5 μM thiol, phosphate buffer pH 8; for Rate constant with Glutathione: Protein: Glutathione, cysteine position NA, in h-1
Procedure, shortened: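 First, 5 μM glutathione in degassed phosphate buffer (pH 8) receives immobilized TCEP beads (2% v/v). Then acrylamide is added and plates incubate 1 h at room temperature. Finally, fluorescence (380/470 nm) is normalized and fitted to first-order decay for rate constants.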

[2] = biological target: T1, human cyclin-dependent kinase 2 (Cdk2) (Homo sapiens, UniProt P24941); assay: Kinetic thiol consumption assay with wild type Cdk2 (C177); assay type: binding; parameters: key to Rate enhancement, Cdk2 WT: k(Cdk2) divided by k(model thiol); Rate constant with Cdk2 (k(Cdk2)): unit not given here; settings: for Rate constant with Cdk2 (k(Cdk2)): 500 μM ligand, 5 μM thiol, phosphate buffer pH 8; for Rate enhancement, Cdk2 WT: no additional mutations; for Rate constant with Cdk2 WT: Protein: Cdk2, cysteine position WT, in h^-1; for k(Cdk2)/k(Cdk2_mut) rate enhancement: model thiol Cdk2[C177A, F80C, K278C]; for k(Cdk2)/k(GSH) rate enhancement: model thiol glutathione
T1 construct: poly-histidine; made in house; host or cells: E. coli
Procedure, shortened: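 His-tagged human Cdk2 (single surface cysteine C177), expressed in E. coli, or a model thiol at 5 μM in degassed phosphate buffer pH 8 was pre-treated with immobilized TCEP beads (2% v/v) before acrylamide addition. Fluorescence (ex/em 380/470 nm) was read after 1 h at room temperature, normalized to DMSO/thiol-only control and plotted versus time.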

Cdk2[C177A, F80C, K278C] = biological target: T2, Cdk2[C177A, F80C, K278C] (Homo sapiens, UniProt P24941, C177A/F80C/K278C); assay: Kinetic thiol consumption assay with mutant Cdk2 as model thiol; assay type: binding; parameters: unit not given here; settings: 500 μM ligand, 5 μM thiol, phosphate buffer pH 8
T2 construct: poly-histidine; made in house; host or cells: E. coli
Procedure, shortened: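 Model thiol: His-tagged human Cdk2 C177A/F80C/K278C (two engineered surface cysteines), E. coli-expressed, 5 μM in degassed phosphate buffer pH 8 with immobilized TCEP beads (2% v/v). Fluorescence (ex/em 380/470 nm) followed over time at room temperature, normalized to DMSO/thiol control. First-order decay fit gives rate constants.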

Cdk2(C177A, F80C) = biological target: T3, Cdk2(C177A, F80C) (Homo sapiens, UniProt P24941, C177A/F80C); assay: Kinetic thiol consumption assay with Cdk2 mutant F80C, incl. kobs versus concentration (Kd, k2); assay type: binding; parameters: key to Rate enhancement, Cdk2 F80C: Cdk2 rate constant divided by model-thiol rate constant; settings: additional mutation C177A; for Rate constant with Cdk2 F80C: Protein: Cdk2, cysteine position F80C, in h^-1
T3 construct: poly-histidine; made in house; host or cells: E. coli
Procedure, shortened: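 His-tagged Cdk2(C177A/F80C) from E. coli or model thiol, 5 μM in degassed phosphate buffer pH 8 with TCEP beads, reacted with acrylamide ligands; fluorescence (ex/em 380/470 nm) normalized to DMSO control and fitted to first-order decay for kobs. Kd and k2 obtained from hyperbolic fit of kobs versus ligand concentration.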

Cdk2(H71C) (C177A) = biological target: T4, Cdk2(H71C) (C177A) (Homo sapiens, UniProt P24941, C177A/H71C); assay: Kinetic thiol consumption assay with Cdk2 mutant H71C; assay type: binding; parameters: key to Rate enhancement, Cdk2 H71C: rate constant with Cdk2 ÷ rate constant with model thiol (fold); settings: additional mutation C177A; for Rate constant with Cdk2 H71C: Protein: Cdk2, cysteine position H71C, in h^-1
T4 construct: poly-histidine; made in house; host or cells: E. coli
Procedure, shortened: (§1)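 5 μM thiol, degassed phosphate pH 8, 2% v/v immobilized TCEP beads; 1 h RT; fluorescence ex 380/em 470 nm; normalized vs DMSO/thiol-only; first-order exponential decay fit → rate constant; Cdk2 k / model-thiol k = rate enhancement per acrylamide.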

Cdk2(S276C) (C177A) = biological target: T5, Cdk2(S276C) (C177A) (Homo sapiens, UniProt P24941, C177A/S276C); assay: Kinetic thiol consumption assay with Cdk2 mutant S276C; assay type: binding; parameters: key to Rate enhancement, Cdk2 S276C: rate constant with Cdk2 ÷ rate constant with model thiol (fold); settings: additional mutation C177A; for Rate constant with Cdk2 S276C: Protein: Cdk2, cysteine position S276C, in h^-1
T5 construct: poly-histidine; made in house; host or cells: E. coli
Procedure, shortened: as §1

Cdk2(N272C) (C177A) = biological target: T6, Cdk2(N272C) (C177A) (Homo sapiens, UniProt P24941, C177A/N272C); assay: Kinetic thiol consumption assay with Cdk2 mutant N272C; assay type: binding; parameters: key to Rate enhancement, Cdk2 N272: rate constant with Cdk2 ÷ rate constant with model thiol (fold); settings: for Rate enhancement, Cdk2 N272: Cdk2 N272, additional mutation C177A; for Rate constant with Cdk2 N272C: Protein: Cdk2, cysteine position N272C, additional mutation C177A, in h^-1
T6 construct: poly-histidine; made in house; host or cells: E. coli
Procedure, shortened: as §1

Cdk2(T182C) (C177A) = biological target: T7, Cdk2(T182C) (C177A) (Homo sapiens, UniProt P24941, C177A/T182C); assay: Kinetic thiol consumption assay with Cdk2 mutant T182C; assay type: binding; parameters: key to Rate enhancement, Cdk2 T182C: rate constant with Cdk2 ÷ rate constant with model thiol (fold); settings: additional mutation C177A; for Rate constant with Cdk2 T182C: Protein: Cdk2, cysteine position T182C, in h^-1
T7 construct: poly-histidine; made in house; host or cells: E. coli
Procedure, shortened: as §1

Cdk2(R122C) (C177A) = biological target: T8, Cdk2(R122C) (C177A) (Homo sapiens, UniProt P24941, C177A/R122C); assay: Kinetic thiol consumption assay with Cdk2 mutant R122C; assay type: binding; parameters: key to Rate enhancement, Cdk2 R122C: rate constant with Cdk2 ÷ rate constant with model thiol (fold); settings: additional mutation C177A; for Rate constant with Cdk2 R122C: Protein: Cdk2, cysteine position R122C, in h-1
T8 construct: poly-histidine; made in house; host or cells: E. coli
Procedure, shortened: as §1

Cdk2(S181C) (C177A) = biological target: T9, Cdk2(S181C) (C177A) (Homo sapiens, UniProt P24941, C177A/S181C); assay: Kinetic thiol consumption assay with Cdk2 mutant S181C; assay type: binding; parameters: key to Rate enhancement, Cdk2 S181C: rate constant with Cdk2 ÷ rate constant with model thiol (fold); settings: additional mutation C177A; for Rate constant with Cdk2 S181C: Protein: Cdk2, cysteine position S181C, in h^-1
T9 construct: poly-histidine; made in house; host or cells: E. coli
Procedure, shortened: as §1

| SMILES | Rate constant with glutathione (k(GSH)) [1] | Rate constant with Glutathione [1] | Rate constant with Cdk2 (k(Cdk2)) [2] | Rate enhancement, Cdk2 WT [2] | Rate constant with Cdk2 WT [2] | k(Cdk2)/k(Cdk2_mut) rate enhancement [2] | k(Cdk2)/k(GSH) rate enhancement [2] | Rate constant with Cdk2[C177A, F80C, K278C] (k(Cdk2_mut)) (Cdk2[C177A, F80C, K278C]) | Rate enhancement, Cdk2 F80C (Cdk2(C177A, F80C)) | Rate constant with Cdk2 F80C (Cdk2(C177A, F80C)) | Rate enhancement, Cdk2 H71C (Cdk2(H71C) (C177A)) | Rate enhancement, Cdk2 S276C (Cdk2(S276C) (C177A)) | Rate enhancement, Cdk2 N272 (Cdk2(N272C) (C177A)) | Rate constant with Cdk2 N272C (Cdk2(N272C) (C177A)) | Rate enhancement, Cdk2 T182C (Cdk2(T182C) (C177A)) | Rate constant with Cdk2 T182C (Cdk2(T182C) (C177A)) | Rate enhancement, Cdk2 R122C (Cdk2(R122C) (C177A)) | Rate constant with Cdk2 R122C (Cdk2(R122C) (C177A)) | Rate enhancement, Cdk2 S181C (Cdk2(S181C) (C177A)) | Rate constant with Cdk2 S181C (Cdk2(S181C) (C177A)) | other results |
| --- | --- | --- | --- | --- | --- | --- | --- | --- | --- | --- | --- | --- | --- | --- | --- | --- | --- | --- | --- | --- | --- |
| C=CC(=O)N1CCC2(CCCN(Cc3ccccc3)C2)C1 (stereo not shown) [CA-141] | 0.01384 | 0.01802 | 0.00693 | 0.3847 | 0.006933 | 2.693 | 0.5009 | 0.00257 | 0.09517 | 0.001715 | 0 | 0 | 0.2507 | 0.004517 | 0.5125 | 0.009235 | 0.2386 | 0.0043 | 0.1935 | 0.003487 |  |
| C=CC(=O)Nc1nc2cc3c(cc2s1)OC(F)(F)O3 [CA-142] | 0.02031 | 0.02028 | 0.03086 | 1.522 | 0.03086 | 1.361 | 1.519 | 0.02268 | 9.635 | 0.1954 | 0.1797 | 3.68 | 0.3071 | 0.006229 | 12.86 | 0.2609 | 0.1319 | 0.002674 | 0.4029 | 0.00817 | Rate constant with Cdk2 H71C (Cdk2(H71C) (C177A)): 0.003644; Rate constant with Cdk2 S276C (Cdk2(S276C) (C177A)): 0.07463 |
| C=CC(=O)N1CCC2CCC(C1)N2C (stereo not shown) [CA-143] | 0.0293 | 0.02932 | 0.01115 | 0.3803 | 0.01115 | 2.207 | 0.3805 | 0.00505 | 0.1014 | 0.002972 | 0.08025 | 0.6344 | 0.4942 | 0.01449 | 2.359 | 0.06917 | 0.2049 | 0.006009 | 0.9178 | 0.02691 | Rate constant with Cdk2 H71C (Cdk2(H71C) (C177A)): 0.002353; Rate constant with Cdk2 S276C (Cdk2(S276C) (C177A)): 0.0186 |
| C=CC(=O)Nc1nc2ccccc2n1CCc1ccccn1 [CA-144] | 0.0414 | 0.04163 | 0.04682 | 1.125 | 0.04682 | 3.77 | 1.131 | 0.01242 | 0.4956 | 0.02063 | 8.256 | 1.262 | 2.14 | 0.08909 | 2.327 | 0.09687 | 0.9491 | 0.03951 | 0.4516 | 0.0188 | Rate constant with Cdk2 H71C (Cdk2(H71C) (C177A)): 0.3437; Rate constant with Cdk2 S276C (Cdk2(S276C) (C177A)): 0.05252 |
| C=CC(=O)N(C(=O)C=C)c1c2ccccc2n2c(C)nc3ccccc3c12 [CA-152] | 0.2501 | 8.003 | 0.8358 | 0.4371 | 3.498 | 0.2732 | 3.342 | 3.059 | 0.1587 | 1.27 | 0 | 0 | 0 |  | 0 |  | 0 |  | 0.9118 | 7.297 |  |

From US11415579B2, “Assay for measuring a rate of reaction between a target and a ligand candidate” (Imperial College Innovations Ltd., priority 2016, dated 2022)
